Where “and” joins values, the source holds several entries; their conditions need not be identical. Identical values can stand only once.
How the values were obtained:
Cre/S196A mice [1] = test: Acetic acid-induced writhing inhibition test, Cre/S196A mutant mice; type: in vivo, mouse; details: for ED50: Mus musculus, ip, 0.6% acetic acid i.p.
Experimental: (§1) Writhing tests were conducted as follows. […] Writhing was counted for 20 minutes following the i.p. injection. At the same time, mice from each genotype were injected with saline s.c. plus acetic acid i.p., and the mean count of writhing of the saline group was calculated. The % MPE for writhing test was calculated by the following formula: (mean count of saline group−count of drug group)*100/(mean count of saline group).

[2] = tested on: μ opioid receptor knockout mice; test: Nalorphine antinociception in μ opioid receptor knockout mice; type: in vivo, mouse; details: μ opioid receptor knockout mice (data not shown)
wild-type mice [3] = test: Tail withdrawal antinociception test, wild-type mice; type: in vivo, mouse; details: for ED50: Mus musculus, 0.5 h, read-out: ED50 tail withdrawal
Experimental: (§2) For tail withdrawal testing, mice were loosely wrapped in an adsorbent towel, and their tails were immersed about 2 cm into water heated to 53° C. or placed under radiant heat. The latency to tail withdrawal was recorded. A cut-off time of 24 seconds for warm water or 12 seconds for radiant heat was used to minimize tail damage. […] Percent maximum possible effects (% MPE) were calculated by the following formula: (measured latency−baseline latency)*100/(cut-off time−baseline latency). Each dose for each genotype involved 8–12 mice. ED50 values were derived from regression analysis on the linear portion of each dose-response curve or calculated by non-linear regression. A two way analysis of variance (ANOVA) (genotype and dose) was used to determine genetic differences among genotypes in the same dose groups.

wild-type mice [4] = test: Acetic acid-induced writhing inhibition test, wild-type mice; type: in vivo, mouse; details: for ED50: Mus musculus, ip, 0.6% acetic acid i.p.
Experimental: as §1

Cre/S196A mice [5] = test: Tail withdrawal antinociception test, Cre/S196A mutant mice; details: for ED50: Mus musculus, radiant heat
Experimental: as §2

[6] = biological target: T1, μ opioid receptor S196A mutant (Mus musculus, UniProt P42866, S196A); test: [3H]DAMGO saturation binding (Scatchard analysis), brain membranes of homozygous Cre/S196A mice; details: listed as [^3H]DAMGO
T1 construct: brain membranes from homozygous Cre/S196A (HOMO) mutant mice; from tissue; host or cells: brain membranes of homozygous Cre/S196A knock-in mice
Experimental: (§3) Approximately 200–350 μg of membranes were used in each assay.

[7] = biological target: T2, μ opioid receptor (wild-type) (Mus musculus, UniProt P42866); test: [3H]DAMGO saturation binding (Scatchard analysis), brain membranes of wild-type mice
T2 construct: Brain membranes were prepared from both wild-type mice; from tissue; host or cells: mouse brain membranes (wild-type littermates)
Experimental: as §3

[8] = read-out: ED50 tail withdrawal, homozygous Cre/S196A mice, 30 minutes after morphine and nalorphine, 12 minutes after naloxone injection

T1 sequence (P42866 whole entry S196A): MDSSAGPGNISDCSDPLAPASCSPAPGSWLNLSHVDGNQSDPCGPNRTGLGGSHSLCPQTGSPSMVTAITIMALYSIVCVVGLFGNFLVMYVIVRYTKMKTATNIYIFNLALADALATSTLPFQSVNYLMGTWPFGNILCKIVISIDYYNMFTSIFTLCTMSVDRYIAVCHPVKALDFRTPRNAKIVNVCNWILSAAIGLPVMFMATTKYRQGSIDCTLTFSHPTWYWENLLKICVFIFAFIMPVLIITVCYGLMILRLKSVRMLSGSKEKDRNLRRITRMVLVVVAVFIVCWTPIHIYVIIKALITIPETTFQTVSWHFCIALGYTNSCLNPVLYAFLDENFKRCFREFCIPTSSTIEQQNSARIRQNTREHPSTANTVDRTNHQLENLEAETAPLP
T2 sequence (P42866 whole entry): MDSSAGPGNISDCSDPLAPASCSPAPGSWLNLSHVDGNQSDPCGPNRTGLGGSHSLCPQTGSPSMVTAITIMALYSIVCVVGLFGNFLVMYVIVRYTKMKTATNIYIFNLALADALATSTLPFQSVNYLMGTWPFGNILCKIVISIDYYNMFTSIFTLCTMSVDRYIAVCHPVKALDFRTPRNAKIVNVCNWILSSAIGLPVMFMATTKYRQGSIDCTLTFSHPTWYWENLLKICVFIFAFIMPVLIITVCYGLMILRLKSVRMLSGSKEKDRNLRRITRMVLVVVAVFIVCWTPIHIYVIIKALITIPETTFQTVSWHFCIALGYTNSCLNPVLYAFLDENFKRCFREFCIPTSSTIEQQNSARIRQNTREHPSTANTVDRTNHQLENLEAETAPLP

SMILES: C=CCN1CC[C@]23c4c5ccc(O)c4O[C@H]2[C@@H](O)C=C[C@H]3[C@H]1C5 [nalorphine]
- ED50 (Cre/S196A mice [1]; homozygous Cre/S196A mice): 0.27 mg/kg
- maximal antinociceptive response compared with morphine, inhibition of writhing (Cre/S196A mice [1]; homozygous Cre/S196A mice, dose of 1 mg/kg): same maximal antinociceptive response as morphine
- antinociceptive effect [2]: absence of nalorphine effect
- ED50 (wild-type mice [3]): 0.61 mg/kg
- maximal response, of the maximal morphine response, tail withdrawal (wild-type mice [3]; wild-type mice): 24±5%
- maximal response, of the maximal morphine response, writhing (wild-type mice [4]): 44±3%
- ED50 (wild-type mice [4]): 0.37 mg/kg
- ED50 (Cre/S196A mice [5]; [8]): 0.89 mg/kg
- antinociceptive response, of the morphine maximal response, tail withdrawal (Cre/S196A mice [5]; homozygous Cre/S196A mice, maximal dose tested, 10 mg/kg): 68±5%

SMILES: C=CCN1CC[C@]23c4c5ccc(O)c4O[C@H]2C(=O)CC[C@@]3(O)[C@H]1C5 [naloxone]
- maximal response, of that observed with morphine, writhing inhibition (Cre/S196A mice [1]; Cre/S196A mice): 45±3
- ED50 (Cre/S196A mice [1]; homozygous Cre/S196A mice): 0.22 mg/kg
- antinociceptive response, tail withdrawal (wild-type mice [3]; wild-type mice, doses of 0.1 to 10 mg/kg): did not produce significant antinociceptive responses
- antinociceptive response, writhing (wild-type mice [4]; doses of 0.1 to 10 mg/kg): did not produce significant antinociceptive responses
- ED50 (Cre/S196A mice [5]; [8]): 1.32 mg/kg
- toxic effects (Cre/S196A mice [5]; both the mutant and the wild-type mice at higher dosages): increasing toxic effects

SMILES: CN1CC[C@]23c4c5ccc(O)c4O[C@H]2[C@@H](O)C=C[C@H]3[C@H]1C5 [morphine]
- ED50 (Cre/S196A mice [1]; heterozygous Cre/S196A mice): 0.68 mg/kg
- ED50 (Cre/S196A mice [1]; homozygous Cre/S196A mice): 0.5 mg/kg
- ED50 (wild-type mice [3]): 4.4 mg/kg
- ED50 (wild-type mice [4]): 0.48 mg/kg
- ED50 (Cre/S196A mice [5]; read-out: ED50 tail withdrawal, heterozygous Cre/S196A mice): 3.47 mg/kg
- ED50 (Cre/S196A mice [5]; [8]): 3.2 mg/kg

SMILES: C[C@@H](NC(=O)[C@@H](N)Cc1ccc(O)cc1)C(=O)NCC(=O)N(C)[C@@H](Cc1ccccc1)C(=O)NCCO [DAMGO, [D-Ala^1.N-McPhe^4.Gly^5-ol]enkephalin]
- Bmax [6]: 17.5±2.3 fmol/mg protein and 17.5 fmol/mg protein
- Bmax [7]: 113±4.3 fmole/mg-protein

— patent US7214534B2, “Isolated nucleic acid molecules encoding mutant μ opioid receptors” (Regents of the University of Minnesota, priority 2002, dated 2007)
